Experiments:
Dihydrofolate reductase [1] = target: T1, Dihydrofolate reductase (Rattus norvegicus, UniProt Q920D2)
T1 sequence (Q920D2 whole entry): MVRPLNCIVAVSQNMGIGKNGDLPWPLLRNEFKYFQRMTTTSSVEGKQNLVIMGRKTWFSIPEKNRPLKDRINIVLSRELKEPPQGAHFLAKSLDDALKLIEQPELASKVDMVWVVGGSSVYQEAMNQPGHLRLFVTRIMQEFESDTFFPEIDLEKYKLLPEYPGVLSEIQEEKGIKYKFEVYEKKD
Description: Inhibitory concentration against Dihydrofolate reductase from Rat liver (rl)

[2] = target: T2, Bifunctional dihydrofolate reductase-thymidylate synthase (Toxoplasma gondii, UniProt Q07422)
T2 sequence (Q07422 whole entry): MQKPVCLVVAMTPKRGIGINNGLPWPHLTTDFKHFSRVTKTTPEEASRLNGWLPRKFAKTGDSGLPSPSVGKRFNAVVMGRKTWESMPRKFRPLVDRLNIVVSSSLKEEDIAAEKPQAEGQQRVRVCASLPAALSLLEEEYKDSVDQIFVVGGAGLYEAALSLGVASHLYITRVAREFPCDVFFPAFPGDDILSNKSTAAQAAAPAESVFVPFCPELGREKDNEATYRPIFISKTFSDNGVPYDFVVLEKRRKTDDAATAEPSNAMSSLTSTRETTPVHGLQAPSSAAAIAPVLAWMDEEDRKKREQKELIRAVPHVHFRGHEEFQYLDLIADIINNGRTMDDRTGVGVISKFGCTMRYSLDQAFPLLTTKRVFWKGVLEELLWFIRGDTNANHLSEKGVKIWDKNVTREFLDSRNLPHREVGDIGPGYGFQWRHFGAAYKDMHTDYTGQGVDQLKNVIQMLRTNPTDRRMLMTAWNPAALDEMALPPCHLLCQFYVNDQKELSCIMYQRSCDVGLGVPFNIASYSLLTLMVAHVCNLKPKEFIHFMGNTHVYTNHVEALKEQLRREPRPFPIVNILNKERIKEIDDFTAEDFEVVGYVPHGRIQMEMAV
Description: Inhibitory concentration against Dihydrofolate reductase from Toxoplasma gondii (tg)

Dihydrofolate reductase [3] = target: T3, Dihydrofolate reductase (Pneumocystis carinii, UniProt P16184)
T3 sequence (P16184 whole entry): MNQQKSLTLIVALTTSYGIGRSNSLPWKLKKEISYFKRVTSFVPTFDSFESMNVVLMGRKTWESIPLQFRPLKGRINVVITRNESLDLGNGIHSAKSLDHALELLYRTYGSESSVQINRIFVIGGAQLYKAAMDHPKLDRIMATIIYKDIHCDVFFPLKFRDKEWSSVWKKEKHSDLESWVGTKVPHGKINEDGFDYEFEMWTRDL
Description: Inhibitory concentration against Dihydrofolate reductase from Pneumocystis carinii (pc)

| SMILES | IC50 (Dihydrofolate reductase [1]) [µM] | IC50 [2] [µM] | IC50 (Dihydrofolate reductase [3]) [µM] |
| --- | --- | --- | --- |
| COc1ccc(/C=C/c2cnc3nc(N)nc(N)c3c2)cc1OC | 2.1 | 1.4 | 2.6 |
| COc1cc(CCc2cnc3nc(N)nc(N)c3c2)cc(OC)c1OC | 1.14 | 0.2 | – |
| COc1cc(N(C)Cc2cnc3nc(N)nc(N)c3c2)cc(OC)c1OC | 0.28 | – | – |
| COc1ccc(/C=C/c2cnc3nc(N)nc(N)c3c2)cc1 | 11.8 | 1.5 | 5.3 |
| COc1ccc(CCc2cnc3nc(N)nc(N)c3c2)cc1OC | 0.61 | 0.2 | 1.4 |
| COc1cc(/C=C/c2cnc3nc(N)nc(N)c3c2)cc(OC)c1OC | 12.9 | 1.4 | > 5 |
| COc1ccc(CCc2cnc3nc(N)nc(N)c3c2)cc1 | 0.26 | 0.25 | 0.29 |
| COc1ccc(CCC2CNc3nc(N)nc(N)c3C2)cc1OC (stereo unspecified) | 2.1 | 1.1 | – |
| COc1cc(NCc2cnc3nc(N)nc(N)c3c2)cc(OC)c1OC | 1.9 | 0.3 | – |
| COc1cc(N(C=O)Cc2cnc3nc(N)nc(N)c3c2)cc(OC)c1OC | 7.4 | 1.1 | 18.5 |
| CCN(Cc1cnc2nc(N)nc(N)c2c1)c1cc(OC)c(OC)c(OC)c1 | 0.12 | 0.049 | 0.19 |
| COc1cc(CCC2CNc3nc(N)nc(N)c3C2)cc(OC)c1OC (stereo unspecified) | 6.1 | 0.47 | 61.7 |

— ChEMBL document CHEMBL1129937, “Synthesis and dihydrofolate reductase inhibitory activities of 2,4-diamino-5-deaza and 2,4-diamino-5,10-dideaza lipophilic antifolates” (J Med Chem, 1997)
